These results are taken from ChEMBL document CHEMBL1125640.

The assay can be described thus: Hill coefficient value of the compound.
Consider `COC(=O)[C@H]1[C@@H](OC(=O)c2ccccc2)C[C@@H]2CC[C@H]1N2C` (stereo in doubt; 1), for which the Hill coefficient (usually the slope factor of the fitted curve) stood at 0.91. Then `COC(=O)[C@H]1[C@H]2CCC(C[C@H]1OC(=O)c1ccccc1)N2C`, with 1.3; and `COC(=O)[C@H]1[C@@H](OC(=O)c2ccccc2)CC2CC[C@H]1N2C`, with 2.6; and `COC(=O)[C@@H]1[C@H]2CCC(C[C@H]1OC(=O)c1ccccc1)N2C`, with 1.19. In the case of `COC(=O)C1C2CC[C@H](C[C@H]1OC(=O)c1ccccc1)N2C` (stereo in doubt; 3) it was 2.81. Then `COC(=O)[C@H]1[C@@H](OC(=O)c2ccccc2)C[C@@H]2CC[C@H]1N2C` (stereo in doubt; 2), with 0.96. In the case of `COC(=O)C1C2CC[C@H](C[C@H]1OC(=O)c1ccccc1)N2C` (stereo in doubt; 4), the Hill coefficient came to 0.92. In turn, `COC(=O)[C@@H]1[C@@H](OC(=O)c2ccccc2)CC2CC[C@H]1N2C` yielded a Hill coefficient of 0.95.
